Assay results reported in patent publication US4010268A, “Derivatives of hexahydrodibenzofuran-3-one, their preparation and use in pharmaceutical compositions” (Roussel-UCLAF, priority 1974, dated 1977).
Counter-ions that a name gives are not always drawn.

What was measured:
[1] = tested on: cough experimentally induced by electric stimulation of the vagus nerve in the guinea pig; assay: Antitussive activity: cough induced by electric stimulation of the vagus nerve; format: in vivo; conditions: for inhibition in vivo at 100 mg/kg / ED50: Cavia porcellus; for inhibition in vivo at 100 mg/kg: 100 mg/kg oral, stimulus 20 and 40 minutes after administration, 6 negative responses = 100%, groups of 6 guinea pigs, read-out: Percentage cough inhibition; for ED50: guinea pig, oral, vagus nerve stimulation, read-out: ED50 (dose which reduces the number of coughs by 50%); for antitussive activity (in words): conclusion from Table 3 results
Experimental: The test consists of stimulating the vagus nerve of the guinea pig and repeating the stimulus 20 and 40 minutes after oral administration of 100 mg/kg of the product under test. 6 Negative responses (3 after 20 minutes and 3 after 40 minutes) represent a cough inhibition of 100%. The test was carried out in groups of 6 animals against groups of control animals (undosed).
In addition, for certain compounds the ED50 was also determined, i.e. that dose which reduces the number of coughs by 50%.

Acute toxicity, oral = conditions: guinea pig, in vivo; guinea pigs, increasing oral dose
Experimental: The acute toxicity of some of compounds of the invention was determined on guinea pigs which had received an increasing oral dose of the compound.

Row | Structure (SMILES) | inhibition in vivo at 100 mg/kg [1] [%] | LD50 (Acute toxicity, oral) [mg/kg] | ED50 [1] [mg/kg] | antitussive activity (in words) [1]
1 | Cc1ccc2c(c1)[C@@]1(C)CCC(=O)[C@@H](NC(=O)CN3CCCC3)[C@H]1O2 (relative stereo) [Example 7] | 17 | ~800 |  | 
2 | Cc1ccc2c(c1)[C@@]1(C)CCC(=O)[C@@H](NC(=O)CCN(C)CCN(C)C)[C@H]1O2 (relative stereo) [Example 18] | 50 | > 1000 |  | 
3 | Cc1ccc2c(c1)[C@@]1(C)CCC(=O)[C@@H](NC(=O)CCCCN(C)C)[C@H]1O2 (relative stereo) [Example 24, 8,9bβ-dimethyl-1,2,3,4,4aβ,9b-hexahydro-4α-[5-N,N-dimethylamino-valeramido]-dibenzofuran-3-one] | 83 |  | 71 | important antitussive activity
4 | CCOC(=O)N1CCN(CCC(=O)N[C@@H]2C(=O)CC[C@]3(C)c4cc(C)ccc4O[C@H]23)CC1 (relative stereo) [Example 14] | 33 | > 1000 |  | 
5 | Cc1ccc2c(c1)[C@@]1(C)CCC(=O)[C@@H](NC(=O)CCN(C)C)[C@H]1O2 (relative stereo) [Example 10, 8,9bβ-dimethyl-1,2,3,4,4aβ,9b-hexahydro-4α-[3-N,N-dimethylamino-propionamido]-dibenzofuran-3-one] | 89 | 500 to 1000 |  | important antitussive activity
6 | Cc1ccc2c(c1)[C@@]1(C)CCC(=O)[C@@H](NC(=O)CCN3CCNCC3)[C@H]1O2 (relative stereo) [Example 13, 8,9bβ-1,2,3,4,4aβ,9b-hexahydro-4α-[3-piperazinopropionamido]-dibenzofuran-3-one] | 75 | > 1000 |  | 
7 | Cc1ccc2c(c1)[C@@]1(C)CCC(=O)[C@@H](NC(=O)CCCN3CCN(C)CC3)[C@H]1O2 (relative stereo) [Example 22, 8,9bβ-dimethyl-1,2,3,4,4aβ,9b-hexahydro-4α-[4-(4-methylpiperazin-1-yl)-butyramido]-dibenzofuran-3-one] | 72 |  |  | 
8 | Cc1ccc2c(c1)[C@@]1(C)CCC(=O)[C@@H](NC(=O)CCN3CCN(C)CC3)[C@H]1O2 (relative stereo) [Example 1, 8,9bβ-dimethyl-1,2,3,4,4aβ,9b-hexahydro-4α-[3-(4-methylpiperazin-1-yl)-propionamido]-dibenzofuran-3-one dihydrochloride] | 100 | 1480 | 32.5 | important antitussive activity
9 | Cc1ccc2c(c1)[C@@]1(C)CCC(=O)[C@@H](NC(=O)CCN3CCOCC3)[C@H]1O2 (relative stereo) [Example 9] | 39 |  |  | 
10 | Cc1ccc2c(c1)[C@@]1(C)CCC(=O)[C@@H](NC(=O)CCN3CCN(Cc4ccccc4)CC3)[C@H]1O2 (relative stereo) [Example 17] | 33 | > 1000 |  | 
11 | Cc1ccc2c(c1)[C@@]1(C)CCC(=O)[C@@H](NC(=O)CN3CCN(C)CC3)[C@H]1O2 (relative stereo) [Example 4] | 43 | > 800 |  | 
12 | Cc1ccc2c(c1)[C@@]1(C)CCC(=O)[C@@H](NC(=O)CCN3CCN(CCO)CC3)[C@H]1O2 (relative stereo) [Example 16] | 17 |  |  | 
13 | Cc1ccc2c(c1)[C@@]1(C)CCC(=O)[C@@H](NC(=O)CCCN(C)C)[C@H]1O2 (relative stereo) [Example 23] | 67 |  |  | 
14 | Cc1ccc2c(c1)[C@@]1(C)CCC(=O)[C@@H](NC(=O)CCN3CCCCC3)[C@H]1O2 (relative stereo) [Example 12] | 46 | ~400 |  | 
15 | CCN(CC(=O)N[C@@H]1C(=O)CC[C@]2(C)c3cc(C)ccc3O[C@H]12)Cc1ccccc1 (relative stereo) [Example 8] |  | > 800 |  | 
16 | CC(=O)N1CCN(CCC(=O)N[C@@H]2C(=O)CC[C@]3(C)c4cc(C)ccc4O[C@H]23)CC1 (relative stereo) [Example 20] | 33 | > 1000 |  | 
17 | CCN(CC)CCC(=O)N[C@@H]1C(=O)CC[C@]2(C)c3cc(C)ccc3O[C@H]12 (relative stereo) [Example 19] | 33 |  |  | 
18 | Cc1ccc2c(c1)[C@@]1(C)CCC(=O)[C@@H](NC(=O)CCN3CCCC3)[C@H]1O2 (relative stereo) [Example 11] | 44 | ~600 |  | 
19 | CCN1CCN(CCC(=O)N[C@@H]2C(=O)CC[C@]3(C)c4cc(C)ccc4O[C@H]23)CC1 (relative stereo) [Example 21] |  | > 1000 |  | 
20 | Cc1ccc2c(c1)[C@@]1(C)CCC(=O)[C@@H](NC(=O)CCN3CCN(c4ccccc4)CC3)[C@H]1O2 (relative stereo) [Example 15] | 54 |  |  | 
21 | Cc1ccc2c(c1)[C@@]1(C)CCC(=O)[C@@H](NC(=O)CCCCCN(C)C)[C@H]1O2 (relative stereo) [Example 25] | 25 |  |  | 
